# According to publication PMC1079869 (BMC Neuroscience, 2005):
# “Also recorded” adds a separate entry of the source.
# Key:
# [1] = target: T1, c-MYC-tagged human delta opioid receptor (Homo sapiens, UniProt P41143); test: Tb-DeltI binding on CHO/MYChDOR whole cells, effect of (1DMe)NPYF (time-resolved fluorometry)
# Method: 6 μg of crude membrane preparations or whole cells (25 000 cell/well) that were plated one day before experiment and fixed with 4 % PFA for 10 min at room temperature, were used in the saturation binding experiments. The whole cell assays were carried out on normal cell culture plates and the assays with membrane preparations on special filter plates (Pall Life Sciences). The cells or membranes were incubated in 50 mM Tris/HCl pH 7.5; 2.5 mM MgCl2; 60 mM NaCl; 25 μM EDTA, 0.2 % BSA (w/v) for 90 min at room temperature with 0.01 – 781.25 nM Tb-DeltI in the presence or absence of 1 or 5 μM unlabeled DeltI. To study the effect of (1DMe)NPYF on the Tb-DeltI binding, 1–1000 nM (1DMe)NPYF was added together with unlabeled DeltI. After the incubation the unbound Tb-DeltI was removed by washing the plates four times with 50 mM Tris/HCl pH 7.5; 2.5 mM MgCl2. Vacuum pump system was used to wash the filter plates. Since the chelate-bound Tb-ion is nonfluorescent, it needed to be released from the complex. In order to release Tb-ion from the chelate 150 μl Delfia enhancement solution was added to the wells and the plates were incubated on a shaker for 15 min. Thereafter, 40 μl Delfia enhancer that changes the pH of the assay solution appropriate for Tb-fluorescence was added, and the plates were further incubated for 5 min on a shaker. The time-resolved fluorescence of the released Tb-ion was measured with Victor^2 Multilabel counter (Perkin Elemer Wallac, Turku, Finland).
# [2] = target: T1, c-MYC-tagged human delta opioid receptor; format: cell-based
# [3] = system: MAP-kinase p42MAPK (ERK2); test: Phosphorylation of MAPK (ERK2) in CHO/MYChDOR cells, immunoblot; format: cell-based, Chinese hamster
# Method: 25000 cells/well were seeded onto 24-well plates and incubated o/n. The medium was replaced with serum-free medium and the cells were incubated for one hour at 37°C. […] The reaction was stopped by removing the medium and adding modified RIPA-lysis buffer (PBS, pH 7.6; 1 % Nonidet P-40 (v/v); 0.5 % sodium deoxycholate (w/v); 0.1 % SDS (w/v), 10 mM NaF; 0.4 mM PMSF, 10 μg/ml aprotinin, 10 μg/ml leupeptin, 2 mM […]; 0.2 mM bestatin). Cells were lysed on ice for 15 min and the lysates were collected. The protein content was determined with the Bradford method.
# 10 μg of protein was analyzed on 10 % SDS-PAGE gel and the gel was blotted onto nitrocellulose membrane. […] After washes, the membrane was detected with the ECL-protocol. The band intensities were measured with AlphaDigiDoc1000 documentation system (Alpha Innotech, San Leandro, CA, USA). […]
# Figure 6 DOR agonist induced phosphorylation of the MAP-kinase, ERK2, is increased by (1DMe)NPYF. A. Total cell lysates (10 μg protein per lane) were detected with phosphoERK2 and total ERK2 specific antibodies. […] B. The band intensities of phosphoERK2 were quantified and they are presented as relative band intensities with respect to the total ERK2. […] The statistical significance between time-points and treatments was analyzed with two-way Anova with Bonferroni's post-test, n = 5. […]
# [4] = target: T1, c-MYC-tagged human delta opioid receptor; test: FACS analysis of agonist-induced DOR internalization (cell surface fluorescence)
# Method: The CHO/MYChDOR cells were collected and suspended into the culture medium. The cells were treated with drugs in suspension as for the immunocytochemistry for the indicated times. After the incubation, the membrane trafficking was stopped by rapidly chilling the cells on ice and removing the medium. After this the cells were kept on ice. The cells were washed with PBS and stained in PBS-suspension with rabbit anti-MYC antibody (1 % normal goat serum (v/v) used to block unspecific binding), followed by the detection with a fluorescent secondary antibody. Dead cells were detected with isopropidium iodide. Cells were analyzed with FACScan flow cytometer (Becton Dickinson and Co., Mountain View, CA, USA). Data from 10000 cells were collected for each run and each sample was run in replicate or triplicate.
# The internalization percent was calculated as: [drawing 1] where F(ctrl) in the fluorescence of the time-matched control cells and the F(sample) is the fluorescence measured from the drug-treated cells.
# 10000 cells/sample were analyzed with FACS.
# [5] = system: neuropathic rats; conditions: periaqueductal grey; cited from earlier work
# Source text: (§1) The interaction between NPFF and opioid system in pain and analgesia seems to be complex in nature and the molecular mechanisms behind the observed physiological effects are not known. […] In the rat spinal cord, the highest NPFF-like immunoreactivity is found in the superficial layers of the dorsal h ...
# [6] = system: opioid receptor subtypes; conditions: any opioid receptor subtype; cited from earlier work
# Source text: as §1
# [7] = system: opioid withdrawal syndrome; conditions: supraspinal administration; cited from earlier work
# Source text: as §1
# [8] = system: presynaptic DOR; conditions: pontine parabrachial nucleus, via presynaptic DOR; cited from earlier work
# Source text: as §1
# [9] = system: NPFF1R; conditions: cited from earlier work
# Source text: (§2) At the physiological level NPFF seems to have both a direct analgesic effect and a modulatory effect on the opioid system. Some of the effects may be mediated via the NPFF receptors as two such receptors, NPFF1R and NPFF2R, have been identified. […] Also the other RFamide peptides bind to the NPFF receptors with varying affinities, and therefore the exact nature of the receptor-ligand interactions between RFamides and their receptors is still unclear.
# [10] = system: NPFF2R; conditions: cited from earlier work
# Source text: as §2
# [11] = system: pain; set-up: method as in 5 sources, ref 1 = [1]; PMID 3865193; doi:10.1073/pnas.82.22.7757; Yang H-YT Fratta W Majane EA Costa E Isolation, sequencing, synthesis, and pharmacological characterization of two brain neuropeptides that modulate the action of morphine Proc Natl Acad Sci U S A 198 ||| ref 4 = [4]; PMID 8821539; doi:10.1111/j.1476-5381.1996.tb15217.x; Gouarderes C Jhamandas K Sutak M Zajac JM Role of opioid receptors in the spinal antinociceptive effects of neuropeptide FF analogues Br J Pharmacol 1996 117 493 501 8821539 10.1111/j.1476-5381.1996.t ||| ref 44 = [44]; PMID 10499424; doi:10.1016/S0196-9781(99)00100-X; Xu M Kontinen VK Panula P Kalso E Effects of (1DMe)NPYF, a synthetic neuropeptide FF analogue, in different pain models Peptides 1999 20 1211 1217 10499424 10.1016/S0196-9781(99)00100-X ||| ref 4, 44 = [4]; PMID 8821539; doi:10.1111/j.1476-5381.1996.tb15217.x; Gouarderes C Jhamandas K Sutak M Zajac JM Role of opioid receptors in the spinal antinociceptive effects of neuropeptide FF analogues Br J Pharmacol 1996 117 493 501 8821539 10.1111/j.1476-5381.1996.t || [44]; PMID 10499424; doi:10.1016/S0196-9781(99)00100-X; Xu M Kontinen VK Panula P Kalso E Effects of (1DMe)NPYF, a synthetic neuropeptide FF analogue, in different pain models Peptides 1999 20 1211 1217 10499424 10.1016/S0196-9781(99)00100-X ||| ref 46 = [46]; PMID 12507715; doi:10.1016/S0304-3959(02)00333-0; Cahill CM Morinville A Hoffert C O'Donnell D Beaudet A Up-regulation and trafficking of delta opioid receptor in a model of chronic inflammation: implications for pain control Pain 2003 101 199 208 12; conditions: cited from earlier work; for effect on NPFF-induced analgesia / antinociception: opioid antagonist against intrathecal NPFF; for antagonism of analgesic effects of NPFF in vivo: opioid antagonists
# [12] = system: rat pituitary cells; conditions: cited from earlier work
# Source text: The dose-dependence of NPFF-agonist on the BMAX was bell-shaped. This could imply that the NPFF-analogue affects only some conformations of the receptor. […] However, the receptor involved in the prolactin release mechanism was not characterized.
# [13] = 100 nM (1DMe)NPYF alone, 5, 10, 30 min, 37°C
# T1 sequence (P41143 whole entry): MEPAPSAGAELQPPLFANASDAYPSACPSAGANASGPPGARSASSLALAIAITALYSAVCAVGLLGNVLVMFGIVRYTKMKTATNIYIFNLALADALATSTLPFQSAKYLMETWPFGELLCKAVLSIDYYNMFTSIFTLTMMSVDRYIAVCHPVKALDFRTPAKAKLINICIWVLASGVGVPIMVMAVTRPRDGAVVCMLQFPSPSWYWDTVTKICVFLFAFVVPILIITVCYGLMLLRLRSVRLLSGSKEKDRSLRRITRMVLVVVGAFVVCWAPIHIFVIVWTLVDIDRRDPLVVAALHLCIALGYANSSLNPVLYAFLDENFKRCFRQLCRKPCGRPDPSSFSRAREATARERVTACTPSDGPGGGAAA
molecule,measurement,setting,value
D-YL-(NMe)-FQPQRF-NH2 [(1DMe)NPYF],effect on the BMAX for Tb-DeltI,"[1]; 1 nM and 10 nM (1DMe)NPYF, whole cells",significantly decreased the BMAX
same,effect on the KD for Tb-DeltI,"[1]; 1–1000 nM (1DMe)NPYF, whole cells",only modestly affected
same,dose-dependence of effect on the BMAX,"[1]; 1–1000 nM, whole cells",bell-shaped
same,effect on the BMAX for Tb-DeltI,"[1]; higher concentrations of (1DMe)NPYF, whole cells",affected the BMAX only modestly
same,displacement of Tb-DeltI at micromolar concentration,"[1]; only micromolar concentration, whole cell and membrane assays",could displace Tb-DeltI in whole cell and membrane binding assays to some extent
same,effect on DPDPE-induced cAMP inhibition,[2],had hardly an effect on the cAMP accumulation
same,effect on DPDPE-induced inhibition of cAMP accumulation,[2],enhanced the DOR agonist induced inhibition of cAMP accumulation significantly at all tested DPDPE concentrations
same,effect on the amount of cAMP,[2],did not have any significant effect on the amount of cAMP
same,enhancement of inhibitory effect of DOR agonists on cAMP accumulation,[2],"able to enhance the inhibitory effect of other DOR agonists, e.g. DeltI"
same,activation of ERK2,[3]; [13],did not result in the activation of ERK2
same,effect on ERK2 activation induced by DPDPE,[3]; 100 nM (1DMe)NPYF together with 100 nM DPDPE,significantly promoted the activation induced by DPDPE
same,DOR internalization,[4]; [13],did not induce receptor internalization at any time-point tested
same,cell surface fluorescence,"[4]; 100 nM (1DMe)NPYF alone, 30 min, vs time-matched control cells",somewhat higher fluorescence
"FLFQPQRFamide [NPFF, RFamide peptide originally isolated from bovine brain]",attenuation of tactile allodynia,[5],selective attenuation of tactile allodynia
same,displacement of opioid receptor ligands,[6],does not displace opioid receptor ligands from any of the opioid receptor subtypes
same,opioid withdrawal syndrome,[7],precipitates opioid withdrawal syndrome
same,modulation of synaptic transmission,[8],modulates synaptic transmission through interaction with presynaptic DOR
same,binding to NPFF1R,[9],binds to both of them
same,binding to NPFF2R,[10],binds to both of them
same,effect on opiate-induced analgesia,[11],potentiated
same,"analgesia, intrathecal",[11]; intrathecal,long-lasting analgesia
same,effect on opioid antinociception,[11]; supraspinal administration,attenuates opioid antinociception
same,"effect on prolactin release, dose-response",[12],bell-shaped dose-response curve
Oc1ccc2c3c1O[C@H]1c4[nH]c5ccccc5c4C[C@@]4(O)[C@@H](C2)N(CC2CC2)CC[C@]314 [naltrindole],effect on NPFF-induced analgesia / antinociception,[11],inhibits the NPFF-induced antinociception; also recorded: reduced
same,antagonism of analgesic effects of NPFF in vivo,[11],blocked
same,block of receptor activation by DOR agonists and of enhanced activation by co-applied (1DMe)NPYF,[4]; DOR antagonist with DOR agonists ± (1DMe)NPYF,could completely block
"Y-D-AFDVVG-NH2 [DeltI, peptidic DOR agonist]",enhanced antinociceptive activity correlated with receptor recruitment,"[11]; recruitment of spinal opioid receptors to plasma membrane, inflammation",enhanced antinociceptive activity of DeltI is correlated with the recruitment of spinal opioid receptors from intracellular stores to the plasma membrane
C=CCN1CC[C@]23c4c5ccc(O)c4O[C@H]2C(=O)CC[C@@]3(O)[C@H]1C5 [naloxone],effect on NPFF-induced analgesia / antinociception,[11],reduced
same,antagonism of analgesic effects of NPFF in vivo,[11],blocked
